{"source": "patent US7510850B2", "about": "“Isolation of the mitotic spindle matrix and its methods of use” (Carnegie Institution of Washington, priority 2005, dated 2009)", "key": {"LB3-matrix": {"test_system": "LB3-matrix", "assay": "LB3-matrix assembly in egg extracts (AurA-beads plus RanGTP or sperm chromatin)", "type": "biochemical, Xenopus", "protocol": "Two methods were used to assay for LB3-matrix assembled in egg extracts. In the first method, spindle assembly was induced with either sperm or AurA-beads plus RanGTP. After incubation, 10 μl of egg extract was diluted into 1 ml XB buffer containing nocodazole (10 μM final concentration) and incubated at room temperature for 10 to 15 minutes to depolymerize MTs. In the second method, egg extracts were incubated with either sperm or AurA-beads plus RanGTP in the presence of 10 μM nocodazole at room temperature for the same time as for spindle assembly reactions. After incubated the egg extracts were diluted into 1 ml BRB80 buffer containing 30% glycerol. LB3-matrix assembled in both methods was spun onto coverslips through 3 ml BRB80 buffer containing 40% glycerol in the same manner as MT spin-down. The LB3-matrix were fixed with methanol (−20° C.) and stained with either polyclonal or monoclonal antibodies to LB3.\nTo detect the membrane in the lamin B matrix, spindles and LB3-matrices were assembled and spun onto coverslips as described above. The coverslips were incubated in BRB80 containing 20% sucrose and 1 μM Vybrant CM-Dil (Molecular Probes, V22888) for 5 minutes at room temperature and then washed briefly in BRB80 containing 20% sucrose. […]"}, "Mouse ES cells": {"test_system": "Mouse ES cells", "assay": "Mitotic arrest of mouse ES cells", "type": "cell-based", "details": "nocodazole 400 nM, about 12 hours", "protocol": "FIG. 9: Induction of mitotic spindle matrix assembly by RanGTP and AurA-beads in mouse ES cells. Mouse ES cells were arrested in mitosis using nocodazole. 70-90% mitotic arrest can be achieved after about 12 hours of nocodazole (400 nM) treatment. The ES cells were washed in PBS and the cell pellet was snap frozen in liquid nitrogen. To make the cell lysate, an energy mix, which contains 0.5 mg/ml delta 90 cyclin B, 10 mM ATP, 100 mM creatine phosphate, 0.5 mg/ml creatine kinase, that equals to 5% of the volume of the ES cell pellet was used to resuspend the ES cell pellet. A ˜2-second sonication was used to disrupt the cell followed by centrifugation to make clarified and concentrated ES cell lysates. RanGTP and AurA-beads were added to the lysate to induce the assembly of mitotic spindle matrix. Shown are matrices that were double labeled with tubulin and lamin B, Sox2, or nanog. AurA-beads (2.8 μm) embedded in the matrices serve as reference for the scale."}, "mitotic spindle": {"test_system": "mitotic spindle", "assay": "Spindle assembly in Xenopus egg extract", "type": "biochemical", "details": "sperm or RanGTP plus AurA-beads; LB3T, LB3T-nls 10 μM; ΔNLB3, wild-type LB3 2 μM", "protocol": "CSF-arrested Xenopus egg extracts, Xenopus sperm, and AurA-beads were prepared as described. […] Spindle assembly reactions were incubated at room temperature for 60 to 90 minutes with sperm or for 10 to 30 minutes with AurA-beads and RanGTP. To immunodeplete LB3, monoclonal antibody or polyclonal antibody to LB3 was coupled to protein A magnetic or agarose beads. IgG from non-immunized rabbits (Jackson Laboratory) was used for mock-depletion. To inhibit LB3 assembly with dominant negative LB3 mutants, LB3T and LB3T-nls were added at 10 μM final concentration, ΔNLB3 and wild-type LB3 were added at 2 μM final concentration to the egg extracts and incubated for 20 minutes before spindle assembly assays."}}, "data": [{"molecule": "COC(=O)Nc1nc2ccc(C(=O)c3cccs3)cc2[nH]1", "note": "[nocodazole]", "values": [{"measurement": "sperm around which LB3-matrix was still assembled", "setting": "LB3-matrix; MT assembly inhibited by nocodazole", "result": "more than half"}, {"measurement": "mitotic arrest", "setting": "Mouse ES cells", "result": "70-90%"}]}, {"molecule": "triton X100", "values": [{"measurement": "lamin B matrix integrity", "setting": "LB3-matrix; 0.1% in XB containing nocodazole, 10 min at room temperature", "result": "completely disrupted"}]}, {"molecule": "wild-type LB3: lamin B3, the major form of lamin B in Xenopus eggs, 6His fusion protein (protein) MATSTPSRAREHASAAQSPGSPTRISRMQEKEDLRHLNDRLAAYIERVRSLEADKSLLKIQLEEREEVSSREVTNLRQLYETELADARKLLDQTANERARLQVELGKVREEYRQLQARNSKKENDLSLAQNQLRDLESKLNTKEAELATALSGKRGLEEQLQEQRAQIAGLESSLRDTTKQLHDEMLWRVDLENKMQTIREQLDFQKNIHTQEVKEIKKRHDTRIVEIDSGRRVEFESKLAEALQELRRDHEQQILEYKEHLEKNFSAKLENAQLAAAKNSDYASATREEIMATKLRVDTLSSQLNHYQKQNSALEAKVRDLQDMLDRAHDMHRRQMTEKDREVTEIRQTLQGQLEEYEQLLDVKLALDMEINAYRKMLEGEEQRLKLSPSPSQRSTVSRASTSQTSRLLRGKKRKLDETGRSVTKRSYKVVQQASSTGPVSVEDIDPEGNYVRLLNNTEEDFSLHGWVVKRMHMSLPEIAFKLPCRFILKSSQRVTIWAAGAGAVHSPPTDLVWKSQKTWGTGDNIKITLLDSTGEECAERTLYRVIGEEGETDEDFVEEEELERQFRSQSHQSVDPSC", "values": [{"measurement": "spindle assembly", "setting": "mitotic spindle", "result": "neither buffer control nor wild-type LB3 affected"}]}]}
